Data: the supplement of paper PMC11451515

What was measured:
[1] = system: SEM cells; test: AUC of viability dose-response curve (% viability x log10 dose units); higher = less sensitive; conditions: 48 h
Summary of the method: (§1)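 In 1536-well plates, leukemia cells adapted to each medium (500 or 1000 cells/well) were exposed for 48 h at 37°C to library compounds in DMSO across 11 threefold doses, 47 μM down to 0.79 nM. Viability was read by CellTiter-Glo One luminescence and normalised per plate to DMSO and cell-free wells. A four-parameter log-logistic fit over log10 doses was integrated by trapezoidal rule. This yielded the area under the curve, with over-full-viability curves scaled and quality-control failures dropped.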

[2] = system: P12-Ichikawa; test: as above; conditions: 48 h
Summary of the method: as §1

[3] = system: NOMO1; test: as above; conditions: 48 h
Summary of the method: as §1

[4] = system: P12-Ichikawa; test: cell viability relative to DMSO control; higher = less cytotoxic; conditions: HPLM + 10% dialyzed FBS, 48 h
Summary of the method: (§2)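 NOMO1, SEM and P12-Ichikawa leukemia cells spent at least four passages adapting to each medium before use. They were seeded at 500 cells/well (NOMO1, SEM) or 1000 cells/well (P12-Ichikawa) in 5 μl in 1536-well plates and pin-dosed with library compounds in DMSO at 11 threefold steps from 47 μM down to 0.79 nM. After 48 h at 37°C, CellTiter-Glo One luminescence was read. Viability is reported as a percentage of the DMSO wells on each plate, with cell-free wells as background.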

[5] = system: NOMO1; test: as above; conditions: RPMI 5 mM glucose + 10% FBS, 48 h
Summary of the method: as §2

[6] = RPMI 5 mM glucose + 10% dialyzed FBS

SMILES	AUC of viability dose-response curve ([1]; HPLM + 10% dialyzed FBS)	AUC of viability dose-response curve ([1]; RPMI 5 mM glucose + 10% FBS)	AUC of viability dose-response curve [1, 6]	AUC of viability dose-response curve ([2]; HPLM + 10% dialyzed FBS)	AUC of viability dose-response curve ([2]; RPMI 5 mM glucose + 10% FBS)	AUC of viability dose-response curve [2, 6]	AUC of viability dose-response curve ([3]; HPLM + 10% dialyzed FBS)	AUC of viability dose-response curve ([3]; RPMI 5 mM glucose + 10% FBS)	AUC of viability dose-response curve [3, 6]	cell viability ([4]; 0.000781 µM)	cell viability ([4]; 0.00234 µM)	cell viability ([4]; 0.00702 µM)	cell viability ([4]; 0.0211 µM)	cell viability ([4]; 0.0632 µM)	cell viability ([4]; 0.19 µM)	cell viability ([4]; 0.569 µM)	cell viability ([4]; 1.71 µM)	cell viability ([4]; 5.12 µM)	cell viability ([4]; 15.4 µM)	cell viability ([4]; 46.1 µM)	cell viability ([5]; 0.000781 µM)	cell viability ([5]; 0.00234 µM)	cell viability ([5]; 0.00702 µM)	cell viability ([5]; 0.0211 µM)	cell viability ([5]; 0.0632 µM)	cell viability ([5]; 0.19 µM)	cell viability ([5]; 0.569 µM)	cell viability ([5]; 1.71 µM)	cell viability ([5]; 5.12 µM)	cell viability ([5]; 15.4 µM)	cell viability ([5]; 46.1 µM)
O=C(Nc1nc2ccccc2n1CCN1CCOCC1)c1cccc([N+](=O)[O-])c1	474	465	444	462	445	449	447	465	470																						
C=C1/C(=C\C=C2/CCC[C@]3(C)[C@@H]([C@H](C)/C=C/[C@H](C)C(C)C)CC[C@@H]23)C[C@@H](O)C[C@@H]1O	446	438	450	399	404	408	398	423	416																						
COc1cc(C)c(Sc2cnc(NC(=O)c3ccc(CNC(C)C(C)(C)C)cc3)s2)cc1C(=O)N1CCN(C(C)=O)CC1 (configuration not stated)	365	358	350	447	444	439	442	453	437	125%	129%	120%	120%	122%	127%	115%	110%	109%	101%	7.33%	116%	131%	124%	128%	127%	124%	132%	115%	114%	115%	17%
CN(C)NC(=O)CCC(=O)O	468	464	474	464	464	466	464	467	471																						
Cc1ccc(CN2CCNCC2)cc1NC(=O)CNc1ccc(F)c(F)c1	447	464	431	454	457	445	435	459	444																						
